Key:
IspG [1] = molecular target: T1, IspG (Escherichia coli, UniProt P62620); assay: microscale thermophoresis; conditions: read-out: binding affinity
T1 sequence (P62620 1-372): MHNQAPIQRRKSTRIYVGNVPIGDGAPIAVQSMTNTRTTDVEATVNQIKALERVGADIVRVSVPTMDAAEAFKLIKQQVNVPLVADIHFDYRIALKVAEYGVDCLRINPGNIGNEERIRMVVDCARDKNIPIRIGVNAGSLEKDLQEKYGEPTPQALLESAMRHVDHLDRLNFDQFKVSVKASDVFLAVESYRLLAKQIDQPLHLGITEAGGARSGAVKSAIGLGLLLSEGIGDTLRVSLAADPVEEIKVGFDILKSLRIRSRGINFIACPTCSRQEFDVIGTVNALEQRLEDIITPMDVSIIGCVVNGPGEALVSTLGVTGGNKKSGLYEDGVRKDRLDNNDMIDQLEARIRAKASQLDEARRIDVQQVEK

H-NS = molecular target: T2, H-NS (Escherichia coli, UniProt P0ACF8); assay: microscale thermophoresis; conditions: read-out: binding affinity
T2 construct: gene hns
T2 sequence (P0ACF8 2-137): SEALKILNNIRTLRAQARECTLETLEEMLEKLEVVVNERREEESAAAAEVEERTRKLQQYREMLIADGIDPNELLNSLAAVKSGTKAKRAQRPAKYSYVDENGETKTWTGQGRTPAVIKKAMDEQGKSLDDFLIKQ

IspG [2] = molecular target: T1, IspG; assay: protein thermal shift assay; format: binding; conditions: 200 µM HMBPP, 2 µM protein, 25 mM MOPS pH 7.5, 50 mM NaCl

Kd (IspG [1]) [µM] | Kd (H-NS) [µM] | SMILES | shift in the melting temperature (IspG [2])
29.4 ± 10 | 6.46 ± 2.17 | C[C@@]1(CO)OP(=O)(O)OP(=O)(O)OC[C@H]1O [MEcPP] | –
– | – | C/C(=C\COP(=O)(O)OP(=O)(O)O)CO [HMBPP] | MEcPP and HMBPP, two known IspG binding metabolites, effectively changed the melting temperature of IspG

— PMC11582573, “An evolutionarily conserved metabolite inhibits biofilm formation in Escherichia coli K-12” (Nature Communications, 2024)
